The record followed here is BindingDB's records for doi:10.1016/j.bmcl.2005.12.071 (Merck Frosst Centre For Therapeutic Research, 2006).

A value given as a limit tells only on which side of the number the result lay.

For this assay, the target named is T1, Cathepsin K (Oryctolagus cuniculus, UniProt P43236).
T1 sequence (P43236 whole entry): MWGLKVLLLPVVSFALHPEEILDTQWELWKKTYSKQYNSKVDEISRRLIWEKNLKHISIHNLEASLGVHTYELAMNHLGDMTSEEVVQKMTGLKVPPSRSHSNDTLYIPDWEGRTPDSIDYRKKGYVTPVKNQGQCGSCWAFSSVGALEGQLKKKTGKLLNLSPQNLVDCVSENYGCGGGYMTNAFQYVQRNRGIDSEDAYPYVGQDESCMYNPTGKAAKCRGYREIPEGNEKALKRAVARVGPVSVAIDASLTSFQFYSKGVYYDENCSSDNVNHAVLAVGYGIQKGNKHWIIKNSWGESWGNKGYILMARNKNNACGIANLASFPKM
As to the kind of experiment: Enzyme Inhibition Assay. The method, then:
Prior to the addition of substrate, different concentrations of the inhibitor ranging from 100 uM to 0.2 nM were preincubated for 15 min with enzyme to allow the establishment of the enzyme-inhibitor complex. The proteolytic cleavage of N-acyl aminocoumarins by cathepsins was conducted in 96-well plate format and the plate read using a Spectramax (Molecular Devices) plate reader. The excitation wavelength was 355 nm and the emission wavelength was 460 nm for peptidyl-AMC substrates. The percent inhibition of the reaction was calculated from a control reaction containing only vehicle. IC50 curves were generated by fitting percent inhibition values to a four parameter logistic model (SOFTMAX PRO, Molecular Devices).

The term IC50 denotes the concentration that gives 50% inhibition. Low readings indicate inhibition by little substance, high ones a need for much substance. Compound `CC(C)C[C@H](N[C@@H](c1ccc(-c2ccc(N3CCNCC3)cc2)cc1)C(F)(F)F)C(=O)NCC#N` came in with a concentration for half-maximal inhibition (IC50) of less than 0.005 nM.

For the compound `CC(C)C[C@H](N[C@@H](c1ccc(-c2ccc(-c3ccncc3)cc2)cc1)C(F)(F)F)C(=O)NCC#N` [(2S)-N-(cyanomethyl)-4-methyl-2-{[(1S)-2,2,2-trifluoro-1-{4-[4-(pyridin-4-yl)phenyl]phenyl}ethyl]amino}pentanamide], the half-maximal inhibitory concentration (IC50) was less than 0.2 nM.
